Data published in US10435399B2, “HDAC6 inhibitory heterocyclic compound” (TAKEDA PHARMACEUTICAL COMPANY LIMITED, priority 2017, dated 2019).

These molecules were tested against T1, HDAC6 enzyme (Homo sapiens, UniProt Q9UBN7) (assay: HDAC6 enzyme inhibitory activity (HDAC-Glo I/II Assay kit)). Conditions: 10 μM; wells without enzyme = 100% inhibition; read-out: HDAC6 inhibitory rate (%) (10 μM).
T1 construct: transducing full length HDAC6 gene into Sf-9 insect cells; GST; purchased SignalChem; host or cells: Sf-9 insect cells
T1 sequence (Q9UBN7 1-1215): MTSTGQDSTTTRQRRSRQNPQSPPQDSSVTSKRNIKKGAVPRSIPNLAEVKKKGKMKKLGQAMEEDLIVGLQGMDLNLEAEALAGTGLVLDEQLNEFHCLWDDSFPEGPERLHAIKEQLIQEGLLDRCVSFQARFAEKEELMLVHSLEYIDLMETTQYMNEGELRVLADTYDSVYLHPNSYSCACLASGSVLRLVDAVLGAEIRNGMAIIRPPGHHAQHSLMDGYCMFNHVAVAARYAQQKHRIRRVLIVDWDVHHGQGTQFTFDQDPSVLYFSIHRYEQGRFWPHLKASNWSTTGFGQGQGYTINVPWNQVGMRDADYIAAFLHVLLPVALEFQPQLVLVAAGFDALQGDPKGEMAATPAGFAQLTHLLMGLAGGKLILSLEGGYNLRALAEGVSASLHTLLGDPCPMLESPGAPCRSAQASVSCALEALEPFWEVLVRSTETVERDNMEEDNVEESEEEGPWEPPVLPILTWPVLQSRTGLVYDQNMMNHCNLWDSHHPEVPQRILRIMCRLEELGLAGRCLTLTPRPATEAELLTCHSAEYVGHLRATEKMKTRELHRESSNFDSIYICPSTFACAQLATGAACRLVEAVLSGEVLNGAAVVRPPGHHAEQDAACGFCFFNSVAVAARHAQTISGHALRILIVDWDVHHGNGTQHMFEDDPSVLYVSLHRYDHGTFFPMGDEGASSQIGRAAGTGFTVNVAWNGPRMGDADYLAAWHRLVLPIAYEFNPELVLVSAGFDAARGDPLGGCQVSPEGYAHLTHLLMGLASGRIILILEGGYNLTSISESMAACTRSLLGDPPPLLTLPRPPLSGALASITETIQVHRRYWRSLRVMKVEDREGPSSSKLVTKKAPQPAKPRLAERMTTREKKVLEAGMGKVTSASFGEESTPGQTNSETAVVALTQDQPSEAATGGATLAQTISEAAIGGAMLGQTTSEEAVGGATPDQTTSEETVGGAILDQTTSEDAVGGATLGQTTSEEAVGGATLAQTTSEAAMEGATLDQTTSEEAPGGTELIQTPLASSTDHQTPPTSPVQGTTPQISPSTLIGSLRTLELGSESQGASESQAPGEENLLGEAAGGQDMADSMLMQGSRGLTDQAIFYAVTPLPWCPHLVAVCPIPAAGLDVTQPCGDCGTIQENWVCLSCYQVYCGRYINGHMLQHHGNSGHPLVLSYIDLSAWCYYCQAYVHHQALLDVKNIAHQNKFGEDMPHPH
Assay type: biochemical
In short: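 Luminescent HDAC-Glo I/II readout after 20 min room-temperature reaction with substrate-developer, following 60 min compound–enzyme preincubation. Enzyme: full-length HDAC6 from Sf-9 cells, GST-purified; buffer 24 mM Tris-HCl pH 7.5, 0.01% Tween-20, glutathione, salts. Wells lacking enzyme define 100% inhibition.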
In the case of `O=C1CCCN1CC(c1ccccc1)N1Cc2ncc(-c3nnc(C(F)F)o3)cc2C1=O` (stereo not drawn) [Example 269, 3-(5-(difluoromethyl)-1,3,4-oxadiazol-2-yl)-6-(2-(2-oxopyrrolidin-1-yl)-1-phenylethyl)-6,7-dihydro-5H-pyrrolo[3,4-b]pyridin-5-one], the inhibition at 10 µM is reported as 99%.
`CC(C)(C#N)C(=O)N[C@@H]1CCCC[C@H]1N1Cc2ccc(-c3nnc(C(F)F)o3)cc2C1=O` [Example 82, 2-cyano-N-((1R,2R)-2-(6-(5-(difluoromethyl)-1,3,4-oxadiazol-2-yl)-1-oxo-1,3-dihydro-2H-isoindol-2-yl)cyclohexyl)-2-methylpropanamide] showed an inhibition at 10 µM of 100%.
Molecule `O=C1c2cc(-c3nnc(C(F)F)o3)ccc2CN1c1ccc(F)cc1-n1cc(C(F)(F)F)cn1` [Example 450, 6-(5-(difluoro-methyl)-1,3,4-oxadiazol-2-yl)-2-(4-fluoro-2-(4-(trifluoro-methyl)-1H-pyrazol-1-yl)phenyl) isoindolin-1-one] has an inhibition at 10 µM of 100%.
`O=C(CC(F)(F)F)N[C@@H]1CCCC[C@H]1N1Cc2ccc(-c3nnc(C(F)F)o3)cc2C1=O` [Example 13, N-((1R,2R)-2-(6-(5-(difluoromethyl)-1,3,4-oxadiazol-2-yl)-1-oxo-1,3-dihydro-2H-isoindol-2-yl)cyclohexyl)-3,3,3-trifluoropropanamide] was tested, and the inhibition at 10 µM was 101%.
Work on `CCCCO[C@H]1CC[C@H](N2Cc3ccc(-c4nnc(C(F)F)o4)cc3C2=O)CC1` [Example 117, 2-(trans-4-butoxycyclohexyl)-6-(5-(difluoromethyl)-1,3,4-oxadiazol-2-yl)isoindolin-1-one] yielded an inhibition at 10 µM of 96%.
`COC1(C(=O)N[C@@H]2CCCC[C@H]2N2Cc3ccc(-c4nnc(C(F)F)o4)cc3C2=O)CCC1` [Example 25, N-((1R,2R)-2-(6-(5-(difluoromethyl)-1,3,4-oxadiazol-2-yl)-1-oxo-1,3-dihydro-2H-isoindol-2-yl)cyclohexyl)-1-methoxycyclobutanecarboxamide] gave an inhibition at 10 µM of 99%.
With `O=C1c2cc(-c3nnc(C(F)F)o3)ccc2CN1N1CCCC1c1ccccn1` (stereo not drawn) [Example 570, 6-(5-(difluoromethyl)-1,3,4-oxadiazol-2-yl)-2-(2-(pyridin-2-yl)pyrrolidin-1-yl)isoindolin-1-one] the inhibition at 10 µM was 100%.
For `O=C1c2cc(-c3nnc(C(F)F)o3)ccc2CN1c1ccccc1-c1cccc(C(F)F)c1` [Example 293, 2-(3′-(difluoromethyl)-biphenyl-2-yl)-6-(5-(difluoromethyl)-1,3,4-oxadiazol-2-yl)isoindolin-1-one], the inhibition at 10 µM was 100%.
For `O=C1c2cc(-c3nnc(C(F)F)o3)cnc2CN1Cc1cccc(F)c1` [Example 273, 3-(5-(difluoromethyl)-1,3,4-oxadiazol-2-yl)-6-(3-fluorobenzyl)-6,7-dihydro-5H-pyrrolo[3,4-b]pyridin-5-one], the inhibition at 10 µM was 97%.
For `CC(C)Oc1cc(-c2ccccc2N2Cc3ccc(-c4nnc(C(F)F)o4)cc3C2=O)ccn1` [Example 294, 6-(5-(difluoromethyl)-1,3,4-oxadiazol-2-yl)-2-(2-(2-isopropoxypyridin-4-yl)phenyl)isoindolin-1-one], the inhibition at 10 µM was 100%.
`O=C1c2cc(-c3nnc(C(F)F)o3)cc(F)c2CN1C[C@H]1CCCN1S(=O)(=O)C1CC1` [Example 274, 2-(((2R)-1-(cyclopropyl-sulfonyl)pyrrolidin-2-yl)methyl)-6-(5-(difluoro-methyl)-1,3,4-oxadiazol-2-yl)-4-fluoroisoindolin-1-one] gave an inhibition at 10 µM of 99%.
With `O=C(NCC(F)(F)C(F)(F)F)C1CC(F)(F)CCN1N1Cc2ccc(-c3nnc(C(F)F)o3)cc2C1=O` (stereo not drawn) [Example 622, 1-(6-(5-(difluoromethyl)-1,3,4-oxadiazol-2-yl)-1-oxo-1,3-dihydro-2H-isoindol-2-yl)-4,4-difluoro-N-(2,2,3,3,3-pentafluoropropyl)piperidine-2-carboxamide] the inhibition at 10 µM was 100%.
`O=C1c2cc(-c3nnc(C(F)F)o3)cnc2CN1[C@@H]1COCC[C@H]1Oc1ccc(F)cc1` [Example 632, 1,5-anhydro-2,4-dideoxy-2-(3-(5-(difluoromethyl)-1,3,4-oxadiazol-2-yl)-5-oxo-5,7-dihydro-6H-pyrrolo[3,4-b]pyridin-6-yl)-3-O-(4-fluorophenyl)-threo-pentitol] was tested, and the inhibition at 10 µM was 99%.
`O=C1c2cc(-c3nnc(C(F)F)o3)cnc2CN1Cc1ccccc1Br` [Example 441, 6-(2-bromo-benzyl)-3-(5-(difluoro-methyl)-1,3,4-oxadiazol-2-yl)-6,7-dihydro-5H-pyrrolo [3,4-b]pyridin-5-one] gave an inhibition at 10 µM of 99%.
`Cn1cc(-c2cncc(F)c2)c(N2Cc3ccc(-c4nnc(C(F)F)o4)cc3C2=O)n1` [Example 459, 6-(5-(difluoro-methyl)-1,3,4-oxadiazol-2-yl)-2-(4-(5-fluoro-pyridin-3-yl)-1-methyl-1H-pyrazol-3-yl) isoindolin-1-one] showed an inhibition at 10 µM of 97%.
Work on `O=C1c2cc(-c3nnc(C(F)F)o3)cnc2CN1[C@@H]1CCCC[C@H]1c1ccccn1` (relative stereo) [Example 587, 3-(5-(difluoromethyl)-1,3,4-oxadiazol-2-yl)-6-((1R*,2R*)-2-(pyridin-2-yl)cyclohexyl)-6,7-dihydro-5H-pyrrolo[3,4-b]pyridin-5-one (optical isomer)] yielded an inhibition at 10 µM of 99%.
For `CC1(C(=O)N[C@@H]2CCCC[C@H]2N2Cc3c(F)cc(-c4nnc(C(F)F)o4)cc3C2=O)COC1` [Example 211, N-((1R,2R)-2-(6-(5-(difluoromethyl)-1,3,4-oxadiazol-2-yl)-4-fluoro-1-oxo-1,3-dihydro-2H-isoindol-2-yl)cyclohexyl)-3-methyloxetane-3-carboxamide], the inhibition at 10 µM was 100%.
Molecule `O=C1c2cc(-c3nnc(C(F)F)o3)ccc2CN1c1ccc(OC(F)(F)F)cc1-c1ccccc1` [Example 485, 6-(5-(difluoro-methyl)-1,3,4-oxadiazol-2-yl)-2-(5-(trifluoro-methoxy)biphenyl-2-yl) isoindolin-1-one] has an inhibition at 10 µM of 100%.
With `O=C1c2cc(-c3nnc(C(F)F)o3)cnc2CN1[C@H]1[C@H](NC(=O)C(F)(F)C(F)(F)F)CCCC1(F)F` [Example 497, N-((1R,2S)-2-(3-(5-(difluoro-methyl)-1,3,4-oxadiazol-2-yl)-5-oxo-5,7-dihydro-6H-pyrrolo[3,4-b]pyridin-6-yl)-3,3-difluoro-cyclohexyl)-2,2,3,3,3-pentafluoro-propanamide] the inhibition at 10 µM was 101%.
Work on `O=C1c2cc(-c3nnc(C(F)F)o3)cc(F)c2CN1[C@@H]1COCC[C@H]1NC(=O)C(F)(F)C(F)(F)F` [Example 174, N-((3S,4R)-3-(6-(5-(difluoromethyl)-1,3,4-oxadiazol-2-yl)-4-fluoro-1-oxo-1,3-dihydro-2H-isoindol-2-yl)tetrahydro-2H-pyran-4-yl)-2,2,3,3,3-pentafluoropropanamide] yielded an inhibition at 10 µM of 102%.
`O=C1c2cc(-c3nnc(C(F)F)o3)ccc2CN1c1ccccc1-c1cnn(C(F)F)c1` [Example 318, 6-(5-(difluoromethyl)-1,3,4-oxadiazol-2-yl)-2-(2-(1-(difluoromethyl)-1H-pyrazol-4-yl)phenyl)isoindolin-1-one] gave an inhibition at 10 µM of 98%.
In the case of `Cn1cc(-c2cccc(C#N)c2)c(N2Cc3ccc(-c4nnc(C(F)F)o4)cc3C2=O)n1` [Example 368, 3-(3-(6-(5-(difluoromethyl)-1,3,4-oxadiazol-2-yl)-1-oxo-1,3-dihydro-2H-isoindol-2-yl)-1-methyl-1H-pyrazol-4-yl)benzonitrile], the inhibition at 10 µM is reported as 99%.
`O=C1c2cc(-c3nnc(C(F)F)o3)ccc2CN1[C@@H]1CCCN[C@@H]1c1ccc(F)cc1` (racemic) [Example 620, 6-(5-(difluoromethyl)-1,3,4-oxadiazol-2-yl)-2-((2RS, 3RS)-2-(4-fluorophenyl)piperidin-3-yl)isoindolin-1-one] gave an inhibition at 10 µM of 101%.
`C[C@H](c1ccccc1)N1Cc2ncc(-c3nnc(C(F)F)o3)cc2C1=O` [Example 476, 3-(5-(difluoro-methyl)-1,3,4-oxadiazol-2-yl)-6-((1R)-1-phenylethyl)-6,7-dihydro-5H-pyrrolo [3,4-b]pyridin-5-one] was tested, and the inhibition at 10 µM was 100%.
